# Experimental data published in patent publication US10160785B2, “Antimicrobial peptides and their use for the treatment of topical infections” (priority 2015, dated 2018).
# Where a SMILES comes first, the peptide text is derived from it.
# Tests used:
# [1] = test system: P. aeruginosa (Liberec) biofilm; assay: Bacterial biofilm, remaining metabolic activity (MTT); assay type: cell-based, Pseudomonas aeruginosa; settings: remaining metabolic activity of biofilm, 20 h
# Procedure, shortened: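 Biofilms of S. aureus or P. aeruginosa (Liberec) were grown 24 h at 37° C with shaking in BHI plus 1% glucose from ca. 10^8 CFU/ml inocula. After washing, biofilms were exposed 20 h to peptides at 1–128 μmol.l^−1. Surviving metabolic activity was measured by MTT (40 min, formazan in DMSO, A540) as percent of untreated biofilm, blank-corrected.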
# in vitro = settings: human
# Procedure, shortened: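 Peptides at 2-200 μmol.l^−1 incubated 1 h at 37 °C with 5% v/v human erythrocyte suspension in physiological solution. Released haemoglobin in supernatant read at 540 nm against buffer (0%) and 0.2% Triton X100 (100%) lysis controls. LC50 is the peptide concentration lysing 50% of cells.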
# [2] = test system: Staphylococcus aureus Liberec; settings: Staphylococcus aureus Liberec clinical isolate; 37° C., 20 h
# Procedure, shortened: (§1)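 Grow isolates to exponential phase and dilute in fresh medium. Add to peptide in LB, twofold dilutions giving 0.1–100 μmol.l^−1 final, about 10^5 CFU per well.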
# Candida albicans Olomouc = settings: Candida albicans Olomouc; YPD medium; 37° C., 20 h (Example 2)
# [3] = test system: Staphylococcus aureus Motol; settings: Staphylococcus aureus Motol clinical isolate; 37° C., 20 h
# Procedure, shortened: as §1
# [4] = test system: Enterococcus faecalis Motol; settings: BHI medium, 37° C., 20 h
# Escherichia coli = settings: 37° C., 20 h
# Procedure, shortened: as §1
# Micrococcus luteus = settings: Micrococcus luteus; 37° C., 20 h
# Procedure, shortened: as §1
# [5] = test system: Pseudomonas aeruginosa 5482; settings: 37° C., 20 h
# Procedure, shortened: as §1
# [6] = test system: Staphylococcus epidermidis Motol; settings: 37° C., 20 h
# Procedure, shortened: as §1
# [7] = test system: Methicillin resistant Staphylococcus aureus (MRSA) 6271; settings: 37° C., 20 h
# Procedure, shortened: as §1
# Bacillus subtilis = settings: Bacillus subtilis; 37° C., 20 h
# Procedure, shortened: as §1
# [8] = test system: Pseudomonas aeruginosa Liberec; settings: Pseudomonas aeruginosa Liberec; 37° C., 20 h
# Procedure, shortened: as §1
smiles,measurement,setting,value
CCCC[C@H](NC(=O)[C@H](CC(C)C)NC(=O)[C@H](CO)NC(=O)[C@H](CO)NC(=O)[C@H](CCCC)NC(=O)[C@@H](NC(=O)CN)[C@@H](C)CC)C(=O)N[C@@H](CCCCN)C(=O)N[C@@H](CCCCN)C(=O)N[C@@H](CC(C)C)C(=O)N[C@@H](CCCCN)C(=O)N[C@@H](CCCCN)C(=O)N[C@H](C(=O)N[C@H](C(=O)N[C@@H](C)C(=O)N[C@@H](CCCCN)C(N)=O)[C@@H](C)CC)[C@@H](C)CC [V] (HELM PEPTIDE1{G.I.[Nle].S.S.L.[Nle].K.K.L.K.K.I.I.A.K.[am]}$$$$V2.0),Metabolic activity (%) P. aeruginosa (Liberec),[1]; peptide concentration 8 μmol · l^−1,65.5%
same,Metabolic activity (%) P. aeruginosa (Liberec),[1]; peptide concentration 16 μmol · l^−1,59.8%
same,Metabolic activity (%) P. aeruginosa (Liberec),[1]; peptide concentration 32 μmol · l^−1,64.9%
same,Metabolic activity (%) P. aeruginosa (Liberec),[1]; peptide concentration 64 μmol · l^−1,61.4%
same,Metabolic activity (%) P. aeruginosa (Liberec),[1]; peptide concentration 128 μmol · l^−1,49.3%
same,HC50 at 1 h,in vitro,373 µM
same,Antimicrobial activity MIC S. a. Liberec,[2],4.0 µM
same,Antimicrobial activity MIC C. a. Olomouc,Candida albicans Olomouc,10.0 µM
same,Antimicrobial activity MIC S. a. Motol,[3],6.7 µM
same,Antimicrobial activity MIC E. f. Motol,[4],54.0 µM
same,Antimicrobial activity MIC E. c.,Escherichia coli,10.0 µM
same,Antimicrobial activity MIC M. l.,Micrococcus luteus,1.6 µM
same,Antimicrobial activity MIC P. a. 5482,[5],4.0 µM
same,Antimicrobial activity MIC S. e. Motol,[6],2.5 µM
same,Antimicrobial activity MIC S. a. 6271,[7],12.7 µM
same,Antimicrobial activity MIC B. s.,Bacillus subtilis,3.5 µM
same,Antimicrobial activity MIC P. a. Liberec,[8],7.9 µM
